US6383479B1, “Neutrophil-activating factor” (Novartis AG, priority 1987, dated 2002)

What was measured:
[1] = exposure to fresh human serum, then activity (superoxide production); assay type: in vitro ADME; details: 15 minutes with fresh human serum
Protocol: C5A and NAF are incubated for 15 minutes with fresh human serum or with PBS and the activity of the preparations is determined (superoxide production).
Since C5a and NAF have similar effects on neutrophils, further experiments must be performed to discriminate entirely between the two. Samples of NAF and C5a are exposed to fresh human serum.

neutrophils = assay: sequential/repeated stimulation of neutrophils (desensitization, superoxide formation); assay type: cell-based, human
Protocol: a) Neutrophils (3×10^6 /ml) are preincubated at 37° C. for 5 min. and then stimulated with different agonists as indicated (arrows).
b) Sequential or repeated stimulation with NAF and C5a. Conditions as in a).
Arrows show addition of agonists as indicated. The concentration of C5a is 0.5 nM in a) and 0.2 nM in b), that of fMLP is 20 nM in both experiments. The agonists are added in 50 μl of PBS-BSA.
On the other hand, when agonists acting on different receptors are used in sequence.(e.g. fMLP followed by C5a) these stimulations yield a normal response. Experiments of this type are therefore used to find out whether NAF acts by its own receptor or via a receptor also used by other agonists.

[2] = isoelectric point (chromatofocusing); assay type: physicochemical
Protocol: A sample of 4 ml of NAF partially purified by phosphocellulose chromatography (Example 4) is dialyzed against start buffer consisting of 25 mM ethanolamine-HCl, pH 9.4 and 0.1% polyethylene glycol 6000, and loaded onto a PBE 94 column (0.7×19 cm, Pharmacia) equilibrated with the same buffer. The column is then eluted with 200 ml of polybuffer 96-HCl (diluted 1:10 with water), pH 7.0, containing 0.1% polyethylene glycol 6000. 10-minute fractions are collected at a flow rate of 10-14 ml/h and assayed for NAF activity. Most of the activity elutes in the region of pH 8.5 to pH 8.8 (FIG. 9).

thymocyte = thymocyte proliferation as a measure of IL-1 activity; assay type: cell-based; details: phosphocellulose fractions
Protocol: Mononuclear cells obtained from donor blood buffy coats as described in Example 1 are cultured in MEM-PPL for 48 h in the presence of 100 ng/ml LPS in stirred culture bottles (1.5 liter, 5×10^6 cells/ml). The culture supernatants are then collected, centrifuged at 20000 rpm for 20 min. at 4° to remove particulate material, and loaded onto a 10 ml phosphocellulose column (Whatman P11, 1,4×6 cm) equilibrated with 20 mM potassium phosphate buffer, pH 7.2 containing 20 mM NaCl and 5% glycerol. The column is washed with 30 ml of the above buffer and then eluted with 90 ml of a linear NaCl concentration gradient (0.02 M to 1.5 M) in the same buffer. Fractions of 2 ml are collected in 0.1% polyethylene glycol and tested for NAF and IL-1 activity. Absorbance at 280 nm is monitored continuously as a measure of protein.
Most of the protein as well as the IL-1 activity are recovered in the flow-through volume. Elution with a linear NaCl gradient yields some IL-1 activity at low ionic strength followed by a peak of elastase-releasing activity corresponding to NAF, which starts to elute at 0.5 M and reaches its maximum at 0.8 M NaCl. The peak is symmetric and is preceded by a small shoulder.

[3] = tested on: New Zealand albino rabbits; assay: neutrophil accumulation and plasma leakage in rabbit skin after intradermal injection; assay type: in vivo
Text: Inflammatory responses are examined in the skin of conscious 2.0 to 2.5 kg New Zealand albino rabbits. Erythrocytes in blood from donor rabbits are sedimented with hydroxyethyl cellulose (Polysciences, Warrington, Pa.) and neutrophils in the resultant leucocyte-rich plasma are purified (>94% neutrophils) by density gradient centrifugation on Percoll (Pharmacia, Uppsala, Sweden). Cells are resuspended in Ca^2+ and Mg^2+—free Tyrode's solution containing 10% platelet poor plasma to a concentration of 10^6 leukocytes/ml and labeled for 15 min at room temperature with 40 μCi ^111indium-oxine (Amersham) per 10^6 cells. The labeled cells are washed by centrifugation through 10% platelet-poor plasma and approximately 10^6 cells per recipient are mixed with 10 μCi ^125iodine-labeled human serum albumin (Amersham) and injected intravenously through the lateral ear vein of rabbits with inflammatory lesions under study. Intradermal injections of inflammatory agents are then made and animals are killed 2 h later in studies with actinomycin D and polymyxin B, and 4 h later in dose-response experiments. Midway through the period that radiolabeled cells are in circulation, a blood sample is collected and the specific activities of neutrophils and plasma in blood are determined. Radioactivity in inflammatory lesions at the end of each experiment are determined in a multichannel gamma counter, the activity in control skin sites is subtracted and the absolute number of neutrophils and volume of plasma accumulating in inflammatory lesions are calculated from the specific activities. Neutrophil numbers in inflammatory lesions are standardised between animals by expressing the results as cell number per 10^6 neutrophils circulating per ml peripheral blood, according to the method of Cybulsky et al., Am. J. Pathol. 124 [1986] 367.
Recombinant NAF obtained as described under Example 19 is dissolved at 400 μg/ml in minimal essential medium (50 mM) plus 0.45 M NaCl (pH 6.5). Endotoxin (E. coli serotype 055:B5, Sigma, St. Louis, Mo.) is dissolved in pyrogen-free normal saline. fMLP is dissolved in dimethyl sulphoxide at 10^−2 M and diluted to working concentrations in PFS. Polymyxin B and actinomycin D are dissolved in 1 ml ethanol and diluted 20 fold by mixing with NAF, endotoxin or fMLP in PFS. In studies on inhibition of inflammatory responses 40 μg polymyxin B and 10^−7 moles actinomycin D are injected per skin site with […] endotoxin. In all experiments 0.2 ml of inflammatory agents are injected intradermally per site through 26 gauge needles, with 5 replicates of each treatment in each animal.

[4] = tested on: mouse, rat and guinea pig; assay: preliminary tests of NAF activity in mouse, rat and guinea pig
Text: The biological properties of NAF are species-specific. Activity in the rabbit most closely mirrors activity in humans.

[5] = recombinant NAF intradermal, 10^−11 to 10^−9 moles per site, 4 h

## neutrophil-activating factor [NAF]
[1]
  effect of serum treatment on activity: does not affect
neutrophils
  cross-desensitization in combinations of NAF with PAF, fMLP and leukotriene B4: fail to show cross-desensitization
neutrophils; superoxide formation
  cross-desensitization between NAF and C5a: no cross-desensitization
  desensitization to a second stimulation with the same agonist: complete desensitization
[2]
  isoelectric point: approximately 8.6
thymocyte
  thymocyte proliferation-inducing activity (IL-1 activity): no thymocyte proliferation-inducing activity
[3]; in vivo, rabbit skin
  molar potency relative to C5a and LTB: comparable
[3]; [5]
  neutrophil accumulation in skin sites: dose-dependent increase
  plasma leakage into skin sites: dose-dependent increase
[4]
  activity in the mouse, rat and guinea pig: not shown any clear activity
